The test system of this assay is BDF1 mice, B16 melanoma ip, median survival T/C. As to the kind of experiment: NCI In Vivo Anticancer Drug Screen. Data for tumor model B16 Melanoma (intraperitoneal) in B6D2F1 (BDF1) mice. The following applies: endpoint: median survival time, higher = longer survival. The essentials:
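Mice with transplantable tumors; drug vs vehicle groups; endpoint survival or tumor size; value = T/C.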

Where [1] appears, read: dose: 25.0 mg/kg/injection, schedule: Q01DX009 (ip), vehicle: Klucel (hydroxypropylcellulose) (HPC).
Where [2] appears, read: dose: 50.0 mg/kg/injection, schedule: Q01DX009 (ip), vehicle: Klucel (hydroxypropylcellulose) (HPC).
Where [3] appears, read: dose: 1.56 mg/kg/injection, schedule: Q01DX009 (ip), vehicle: saline.
Setting [4] is: dose: 3.12 mg/kg/injection, schedule: Q01DX009 (ip), vehicle: saline.
The mark [5] stands for this setting: dose: 12.5 mg/kg/injection, schedule: Q01DX009 (ip), vehicle: saline.
Setting [6] is: dose: 25.0 mg/kg/injection, schedule: Q01DX009 (ip), vehicle: saline.
The mark [7] stands for this setting: dose: 12.5 mg/kg/injection, schedule: Q01DX009 (ip), vehicle: saline with Tween-80.
The mark [8] stands for this setting: dose: 25.0 mg/kg/injection, schedule: Q01DX009 (ip), vehicle: saline with Tween-80.
The mark [9] stands for this setting: dose: 50.0 mg/kg/injection, schedule: Q01DX009 (ip), vehicle: saline with Tween-80.
[10] abbreviates: dose: 100.0 mg/kg/injection, schedule: Q04DX003 (ip), vehicle: Klucel (hydroxypropylcellulose) (HPC).
[11] abbreviates: dose: 200.0 mg/kg/injection, schedule: Q04DX003 (ip), vehicle: Klucel (hydroxypropylcellulose) (HPC).
The mark [12] stands for this setting: dose: 12.5 mg/kg/injection, schedule: Q01DX009 (ip), vehicle: Klucel (hydroxypropylcellulose) (HPC).
Setting [13] is: dose: 100.0 mg/kg/injection, schedule: Q01DX009 (ip), vehicle: Klucel (hydroxypropylcellulose) (HPC).
[14] abbreviates: dose: 200.0 mg/kg/injection, schedule: Q01DX009 (ip), vehicle: Klucel (hydroxypropylcellulose) (HPC).
[15] abbreviates: dose: 100.0 mg/kg/injection, schedule: Q01DX009 (ip), vehicle: saline with Tween-80.
[16] abbreviates: dose: 100.0 mg/kg/injection, schedule: Q01DX009 (ip), vehicle: saline.

Each structure is given as a SMILES string. Several values for one entry are separate records, joined by “and”; a condition that tells them apart may be missing. Identical values can stand only once. Toxic doses and inconclusive results are not listed.

On to `C=C1CCN(c2ccc(OCC)cc2)C1=O`, for which the T/C is 93 % of control (dose: 4.0 mg/kg/injection, schedule: Q01DX009 (ip), vehicle: saline + alcohol); 95 % of control (dose: 8.0 mg/kg/injection, schedule: Q01DX009 (ip), vehicle: saline + alcohol); 107 % of control (dose: 16.0 mg/kg/injection, schedule: Q01DX009 (ip), vehicle: saline + alcohol); 115 % of control (dose: 32.0 mg/kg/injection, schedule: Q01DX009 (ip), vehicle: saline + alcohol); 93 % of control (dose: 64.0 mg/kg/injection, schedule: Q01DX009 (ip), vehicle: saline + alcohol).

In the case of `O=[N+]([O-])c1ccc2[nH]c(=S)sc2c1`, the T/C by setting is: under setting [1], 97 % of control; under setting [2], 100 % of control.

Consider `O=NN(CCCl)C(=O)NC1OC(CO)C(O)C(O)C1O` (configuration not stated), for which the T/C is, setting by setting: (dose: 0.16 mg/kg/injection, schedule: Q01DX009 (ip), vehicle: saline) 107 % of control; (dose: 0.31 mg/kg/injection, schedule: Q01DX009 (ip), vehicle: saline) 111 % of control and 116 % of control; (dose: 0.62 mg/kg/injection, schedule: Q01DX009 (ip), vehicle: saline) 108 % of control; (dose: 1.25 mg/kg/injection, schedule: Q01DX009 (ip), vehicle: saline) 178 % of control; (dose: 2.5 mg/kg/injection, schedule: Q01DX009 (ip), vehicle: saline) 188 % of control; (dose: 5.0 mg/kg/injection, schedule: Q01DX009 (ip), vehicle: saline) 193 % of control.

For `CCNC(C)(C)C(SSSC(c1cccs1)C(C)(C)NCC)c1cccs1` (configuration not stated), the T/C runs as follows: under setting [1], 100 % of control; under setting [2], 94 % of control.

`CNCCCC1c2ccccc2C=Cc2ccccc21`: the T/C reads like this: under setting [3], 106 % of control; under setting [4], 118 % of control; (dose: 6.25 mg/kg/injection, schedule: Q01DX009 (ip), vehicle: saline) 103 % of control; under setting [5], 112 % of control; under setting [6], 109 % of control.

For the molecule `C[C@]12CC[C@H](O)C[C@@]1(O)CC[C@@H]1[C@@H]2CC[C@]2(C)[C@@H](c3ccc(=O)oc3)CC[C@]12O`, the T/C by setting is: (dose: 1.25 mg/kg/injection, schedule: Q01DX009 (ip), vehicle: Klucel (hydroxypropylcellulose) (HPC)) 94 % of control; (dose: 2.5 mg/kg/injection, schedule: Q01DX009 (ip), vehicle: Klucel (hydroxypropylcellulose) (HPC)) 92 % of control; (dose: 5.0 mg/kg/injection, schedule: Q01DX009 (ip), vehicle: Klucel (hydroxypropylcellulose) (HPC)) 92 % of control; (dose: 10.0 mg/kg/injection, schedule: Q01DX009 (ip), vehicle: Klucel (hydroxypropylcellulose) (HPC)) 94 % of control; under setting [7], 96 % of control; (dose: 20.0 mg/kg/injection, schedule: Q01DX009 (ip), vehicle: Klucel (hydroxypropylcellulose) (HPC)) 94 % of control. For the same molecule, the T/C reads like this: under setting [8], 94 % of control; under setting [9], 92 % of control.

As for `CCOC1c2cc(OC)ccc2C(=O)CCN1S(=O)(=O)c1ccc(C)cc1` (configuration not stated), the T/C is, setting by setting: under setting [10], 93 % of control; under setting [11], 102 % of control; (dose: 400.0 mg/kg/injection, schedule: Q04DX003 (ip), vehicle: Klucel (hydroxypropylcellulose) (HPC)) 102 % of control.

As for `CC(=O)NC(Cc1cc(I)c(O)c(I)c1)C(=O)O` (configuration not stated), the T/C was 103 % of control (dose: 6.25 mg/kg/injection, schedule: Q01DX009 (ip), vehicle: Klucel (hydroxypropylcellulose) (HPC)); 108 % of control under setting [12]; 96 % of control and 101 % of control under setting [1]; 95 % of control under setting [2]; 98 % of control under setting [13]; 93 % of control under setting [14].

Turning to `CCOC(=O)C(=Cc1ccccc1Cl)C(=O)OCC`, the T/C runs as follows: (dose: 50.0 mg/kg/injection, schedule: Q04DX003 (ip), vehicle: Klucel (hydroxypropylcellulose) (HPC)) 99 % of control; under setting [10], 107 % of control; under setting [11], 95 % of control.

With `CC12CCC(OC3OC(CO)C(OC4OC(CO)C(O)C(O)C4O)C(O)C3O)CC1CCC1C2CCC2(C)C(C3=CC(=O)OC3)CCC12O` (configuration not stated), the T/C (dose: 6.0 mg/kg/injection, schedule: Q01DX009 (ip), vehicle: saline) is 102 % of control; the T/C (dose: 12.0 mg/kg/injection, schedule: Q01DX009 (ip), vehicle: saline) was 114 % of control; the T/C (dose: 24.0 mg/kg/injection, schedule: Q01DX009 (ip), vehicle: saline) is 102 % of control; the T/C (dose: 48.0 mg/kg/injection, schedule: Q01DX009 (ip), vehicle: saline) was 92 % of control.

Take `CCSc1nc(C)cc(Cl)n1`: the T/C under setting [9] is 100 % of control; the T/C under setting [15] is 104 % of control; the T/C (dose: 200.0 mg/kg/injection, schedule: Q01DX009 (ip), vehicle: saline with Tween-80) is 88 % of control.

For the molecule `COc1ccc2c(ccc3oc([N+](=O)[O-])cc32)c1`, the T/C under setting [12] is 115 % of control, the T/C under setting [1] is 118 % of control and the T/C under setting [2] was 123 % of control.

As for `CCCCCCCCN(C)N=Nc1ccc(Cl)cc1C(=O)O`, the T/C by setting is: under setting [9], 103 % of control; under setting [15], 107 % of control.

For the molecule `CCCCCCCCCCCCc1ccc(CS)cc1`, the T/C under setting [16] is 92 % of control and the T/C (dose: 200.0 mg/kg/injection, schedule: Q01DX009 (ip), vehicle: saline) was 89 % of control.

As to `CC(C)C(N)C(=O)Nc1nncs1` (configuration not stated), the T/C by setting is: under setting [5], 103 % of control; under setting [6], 114 % of control; (dose: 50.0 mg/kg/injection, schedule: Q01DX009 (ip), vehicle: saline) 108 % of control; under setting [16], 102 % of control.

`CS(=O)(=O)OCCCOS(C)(=O)=O`: the T/C under setting [12] was 91 % of control.

For the molecule `CCCCOC(=O)c1ccc(NC(=O)Nc2ccccc2Cl)cc1`, the T/C is, setting by setting: under setting [7], 102 % of control; under setting [8], 102 % of control; under setting [9], 88 % of control and 100 % of control.

`Cc1c(Cl)cccc1NC(=O)Nc1ccc(Cl)c(Cl)c1`: the T/C runs as follows: under setting [12], 105 % of control; under setting [1], 92 % of control; under setting [2], 91 % of control.

As for `NC(C(=O)O)c1ccc(CBr)cc1` (configuration not stated), the T/C by setting is: (dose: 12.5 mg/kg/injection, schedule: Q01DX009 (ip), vehicle: acid diluted with saline) 152 % of control; (dose: 25.0 mg/kg/injection, schedule: Q01DX009 (ip), vehicle: acid diluted with saline) 157 % of control; (dose: 100.0 mg/kg/injection, schedule: Q01DX009 (ip), vehicle: acid diluted with saline) 152 % of control; (dose: 200.0 mg/kg/injection, schedule: Q01DX009 (ip), vehicle: acid diluted with saline) 157 % of control.

Consider `CN1CCN(CCC=C2c3ccccc3Sc3ccc(S(=O)(=O)N(C)C)cc32)CC1`, for which the T/C by setting is: (dose: 0.78 mg/kg/injection, schedule: Q01DX009 (ip), vehicle: saline) 102 % of control; under setting [3], 100 % of control; under setting [4], 86 % of control; under setting [5], 89 % of control.

`C=CCNC(=S)Nc1ccc(C)cc1`: the T/C runs as follows: under setting [2], 100 % of control; under setting [13], 93 % of control; under setting [14], 90 % of control.

Regarding `CCC/C=C/C(C)C`, the T/C is 95 % of control under setting [13]; 88 % of control under setting [14]; 95 % of control (dose: 400.0 mg/kg/injection, schedule: Q01DX009 (ip), vehicle: Klucel (hydroxypropylcellulose) (HPC)).

With `CCOC(=O)C1=C(C)O/C(=C/c2cccc(Cl)c2)C1=O`, the T/C reads like this: (dose: 6.25 mg/kg/injection, schedule: Q01DX009 (ip), vehicle: saline with Tween-80) 110 % of control; under setting [7], 113 % of control; under setting [8], 113 % of control; under setting [9], 86 % of control and 107 % of control; under setting [15], 97 % of control.

In the case of `O=C(Nc1ccccc1F)c1ccc(C(=O)Nc2ccccc2F)cc1`, the T/C is, setting by setting: under setting [12], 100 % of control; under setting [1], 105 % of control; under setting [2], 101 % of control.

(Values after PubChem BioAssay AID192 (DTP/NCI, 2004).)
